Square brackets hold non-standard residues; d marks the D form. Peptide text beside a SMILES is read from it. Nle = CCCC[C@H](N)C(=O)O
T1: GLP-2 receptor (Homo sapiens, UniProt O95838)
T1 sequence (O95838 1-553): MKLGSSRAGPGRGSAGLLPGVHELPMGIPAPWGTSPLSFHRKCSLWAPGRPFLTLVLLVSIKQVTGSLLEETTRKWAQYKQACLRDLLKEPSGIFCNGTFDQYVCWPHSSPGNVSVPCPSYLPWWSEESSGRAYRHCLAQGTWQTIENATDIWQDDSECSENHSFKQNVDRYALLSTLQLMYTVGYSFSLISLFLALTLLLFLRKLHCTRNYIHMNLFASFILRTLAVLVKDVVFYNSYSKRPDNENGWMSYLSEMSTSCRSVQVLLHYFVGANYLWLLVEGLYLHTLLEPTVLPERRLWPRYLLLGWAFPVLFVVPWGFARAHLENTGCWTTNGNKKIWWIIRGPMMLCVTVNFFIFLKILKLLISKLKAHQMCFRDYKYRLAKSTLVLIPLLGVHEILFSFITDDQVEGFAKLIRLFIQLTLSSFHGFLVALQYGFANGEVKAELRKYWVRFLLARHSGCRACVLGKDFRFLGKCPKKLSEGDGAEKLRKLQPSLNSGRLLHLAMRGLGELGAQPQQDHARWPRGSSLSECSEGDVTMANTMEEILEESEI

T2: GLP-2 receptor (UniProt O95838 1-553, limits assumed)
T2 sequence (looked up): T1 sequence (O95838 1-553)

B1: GLP-2 Variant #4 (peptide)
peptide: H-HGEGSFSDE[Nle]NTILDLLAARDFINWLIQTKITD-NH2
SMILES: CCCC[C@H](NC(=O)[C@H](CCC(=O)O)NC(=O)[C@H](CC(=O)O)NC(=O)[C@H](CO)NC(=O)[C@H](Cc1ccccc1)NC(=O)[C@H](CO)NC(=O)CNC(=O)[C@H](CCC(=O)O)NC(=O)CNC(=O)[C@@H](N)Cc1c[nH]cn1)C(=O)N[C@@H](CC(N)=O)C(=O)N[C@H](C(=O)N[C@H](C(=O)N[C@@H](CC(C)C)C(=O)N[C@@H](CC(=O)O)C(=O)N[C@@H](CC(C)C)C(=O)N[C@@H](CC(C)C)C(=O)N[C@@H](C)C(=O)N[C@@H](C)C(=O)N[C@@H](CCCNC(=N)N)C(=O)N[C@@H](CC(=O)O)C(=O)N[C@@H](Cc1ccccc1)C(=O)N[C@H](C(=O)N[C@@H](CC(N)=O)C(=O)N[C@@H](Cc1c[nH]c2ccccc12)C(=O)N[C@@H](CC(C)C)C(=O)N[C@H](C(=O)N[C@@H](CCC(N)=O)C(=O)N[C@H](C(=O)N[C@@H](CCCCN)C(=O)N[C@H](C(=O)N[C@H](C(=O)N[C@@H](CC(=O)O)C(N)=O)[C@@H](C)O)[C@@H](C)CC)[C@@H](C)O)[C@@H](C)CC)[C@@H](C)CC)[C@@H](C)CC)[C@@H](C)O

Experiments:
[1] = Pharmacokinetics of modified GLP-2 variants in rats; type: in vivo; conditions: rat, serum, peptide dose 15 mg/kg
[2] = target: T1, GLP-2 receptor; test: GLP-2 receptor Cell Based Assay (CBA); conditions: Table 7
Description: Evaluation of in vitro binding affinity of the different peptides was assessed by using Cell Based Assay (CBA) in the presence of escalating doses of the different peptides.

[3] = Stability of GLP-2 analogues on incubation at 37° C. (appearance, O.D. reading, RP-HPLC); type: physicochemical; conditions: following 48 h incubation at 37° C.; for Stability via RP-HPLC main peak: change of main peak
Description: The GLP-2 analogues were tested for stability via appearance, O.D. reading (A.280, and A.325) and RP-HPLC (purity, and peak area) following t=0, 1 day, and 48 h incubation at 37° C.

[4] = test system: small intestine; test: Intestine weight model in rats; type: in vivo, SD rats; conditions: modified peptides; two injections on days 1 & 3 at 1 mg/kg; intestine weight on day 6
Description: In the pharmacology study, the conjugates were injected subcutaneously twice, on days 1 and 3 at 1 mg/kg (peptide dose) and intestine weight was performed on day 6. In addition to the PEGylated conjugates, GLP-2-Gly2 was injected at the same dose and regimen for comparison. The average of the intestine weight of each group was compared to that of the vehicle group.
In a different study, several of the PEGylated teduglutide were injected as a single dose at 1 mg/kg and the intestine weight performed on day 6.
Pharmacology and pharmacokinetic studies were performed with the most promising GLP-2 variants to evaluate their efficacy and longevity, respectively. The intestine weight model in rats was conducted to evaluate efficacy, by measuring percent increase of the intestine weight of treated animals over the vehicle group. In this study, the peptides were injected twice, on days 1 and 3 at 1 mg/kg and the intestine weight was conducted on day 6.
PEG20-FMS-V6, PEG20-Fmoc-V6 and PEG40-FMS-V6 were injected once at 1 mg/kg dose on day 1, while group D was also injected twice on days 1 & 3 at 1 mg/kg. The intestine weight was performed on day 6.
Three different reversible PEGylated GLP-2 variants using mutated peptide #4 were injected at 2 mg/kg (peptide dose), once every 6 days for 12 days. On the 12th day the intestine was weighted and compared to the control group. PEG30-FMS-V4 was injected at 0.5 mg/kg as well to evaluate the efficacy dose range.
In addition to PEG30-FMS-V4 and PEG30-Fmoc-V4 that have been pharmacology evaluated by small intestinal weight evaluation (As shown in Example 5), four other reversible PEGylated variant 4 (“V4”) conjugates and two reversible linker-V4 conjugates were synthesized. All the above were injected to 6 normal SD rats/group once at 2 mg/kg (peptide dose), while on the 6th day, animals were scarified, and the small intestine was weighted followed by histopathology evaluation. […] Therefore, slices from three areas of the intestine (duodenum, jejunum and ilium) were stained with hematoxylin and eosin and at least 7 Crypts+Villi length/slice were measured. The averaged Villi+Crypt length of each treatment group (n=6) was compared to the vehicle group (negative control) and calculated as percentage increase over vehicle.
Additional studies were conducted to evaluate the efficacy of the V4 peptide and the reversible MAL-FMS-V4. The long acting effect of V4 and the conjugates were evaluated at Day 6 and Day 10 following treatment (Study reference 15203). All test groups (n=9) were injected SC with 2 mg/kg peptide content at Day 1. At Days 6 and 10, animals were sacrificed and the small intestine underwent histopathology evaluation (6 animals for Day 6, 3 animals for Day 10). FIGS. 12 and 13 show the pharmacology effect of different V4 conjugates and Apraglutide and Glepaglutide as measured by the percent increase of small intestine weight and crypts plus villi length over vehicle, respectively.
To further evaluate the pharmacology efficacy of V4 and Cys-FMS-V4, an experiment was performed to test their acute and prolonged effect on the small intestine (Study reference 15205). In addition, V4 and Cys-FMS-V4 were administrated as a single SC injection on Day 1 at 3 different doses (0.5, 2.0 or 8.0 mg/kg peptide content, 6 rats per group) to assess the dose dependence effect. The pharmacological effect on small intestine weight and villi plus crypts length was measured at Days 3, 7 and 14, and the results are presented in FIGS. 15 and 16. […] It should be noted that this acute response was higher for V4 compared to Cys-FMS-V4 at all 3 dose levels.

[5] = Solubility and stability in different buffer systems, concentrations, incubation and freeze-thaw; type: physicochemical; conditions: Histidine and NaPi, pH 6.8 to 7.5; 1-10 mg/mL; up to 3 days at 37° C.; up to three freeze-thaw cycles
[6] = target: T2, GLP-2 receptor; test: cell-based or functional assay
[7] = target: T2, GLP-2 receptor; test: cell-based or functional assay; remark: listed apart in the source

Row | Molecule | half-life [1] | EC50 Ratio to Teduglutide [2] | Solubility via appearance [3] | Stability via RP-HPLC main peak [3] | Increase of intestine weight over vehicle (%) [4] | CMC perspective, combining purity and solubility [5] | EC50 (nM) Average, GLP2-receptor CBA, 3 independent assays [6] | EC50 Ratio to Teduglutide, GLP2-receptor CBA [6] | EC50 Ratio to Teduglutide, CBA [7] | EC50 [nM], Cell Based Assay (CBA), cells overexpressing the GLP-2 receptor [7]
1 | CCCC[C@H](NC(=O)[C@H](CCC(=O)O)NC(=O)[C@H](CC(=O)O)NC(=O)[C@H](CO)NC(=O)[C@H](Cc1ccccc1)NC(=O)[C@H](CO)NC(=O)CNC(=O)[C@H](CCC(=O)O)NC(=O)CNC(=O)[C@@H](N)Cc1c[nH]cn1)C(=O)N[C@@H](CC(N)=O)C(=O)N[C@H](C(=O)N[C@H](C(=O)N[C@@H](CC(C)C)C(=O)N[C@@H](CC(=O)O)C(=O)N[C@@H](CC(C)C)C(=O)N[C@@H](CC(C)C)C(=O)N[C@@H](C)C(=O)N[C@@H](C)C(=O)N[C@@H](CCCNC(=N)N)C(=O)N[C@@H](CC(=O)O)C(=O)N[C@@H](Cc1ccccc1)C(=O)N[C@H](C(=O)N[C@@H](CC(N)=O)C(=O)N[C@@H](Cc1c[nH]c2ccccc12)C(=O)N[C@@H](CC(C)C)C(=O)N[C@H](C(=O)N[C@@H](CCC(N)=O)C(=O)N[C@H](C(=O)N[C@@H](CCCCN)C(=O)N[C@H](C(=O)N[C@H](C(=O)N[C@@H](CC(=O)O)C(=O)O)[C@@H](C)O)[C@@H](C)CC)[C@@H](C)O)[C@@H](C)CC)[C@@H](C)CC)[C@@H](C)CC)[C@@H](C)O [Variant 6] (H-HGEGSFSDE[Nle]NTILDLLAARDFINWLIQTKITD-OH) | 12.1 h | 3.8 | V6: clear | (~1.5%) | 43% | outperformed the rest of the peptides |  |  |  | 
2 | CCCC[C@H](NC(=O)[C@H](CCC(=O)O)NC(=O)[C@H](CC(=O)O)NC(=O)[C@H](CO)NC(=O)[C@H](Cc1ccccc1)NC(=O)[C@H](CO)NC(=O)CNC(=O)[C@H](CCC(=O)O)NC(=O)CNC(=O)[C@@H](N)Cc1c[nH]cn1)C(=O)N[C@@H](CC(N)=O)C(=O)N[C@H](C(=O)N[C@H](C(=O)N[C@@H](CC(C)C)C(=O)N[C@@H](CC(=O)O)C(=O)N[C@@H](Cc1ccc(O)cc1)C(=O)N[C@@H](CC(C)C)C(=O)N[C@@H](C)C(=O)N[C@@H](C)C(=O)N[C@@H](CCCNC(=N)N)C(=O)N[C@@H](CC(=O)O)C(=O)N[C@@H](Cc1ccccc1)C(=O)N[C@H](C(=O)N[C@@H](CC(N)=O)C(=O)N[C@@H](Cc1c[nH]c2ccccc12)C(=O)N[C@@H](CC(C)C)C(=O)N[C@H](C(=O)N[C@@H](CCC(N)=O)C(=O)N[C@H](C(=O)N[C@@H](CCCCN)C(=O)N[C@H](C(=O)N[C@H](C(=O)N[C@@H](CC(=O)O)C(=O)O)[C@@H](C)O)[C@@H](C)CC)[C@@H](C)O)[C@@H](C)CC)[C@@H](C)CC)[C@@H](C)CC)[C@@H](C)O [Variant 7] (H-HGEGSFSDE[Nle]NTILDYLAARDFINWLIQTKITD-OH) | 5.8 h | 3.0 | V7: clear | (no change | 12% | outperformed the rest of the peptides |  |  |  | 
3 | CCCC[C@H](NC(=O)[C@H](CCC(=O)O)NC(=O)[C@H](CC(=O)O)NC(=O)[C@H](CO)NC(=O)[C@H](Cc1ccccc1)NC(=O)[C@H](CO)NC(=O)CNC(=O)[C@H](CCC(=O)O)NC(=O)CNC(=O)[C@@H](N)Cc1c[nH]cn1)C(=O)N[C@@H](CC(N)=O)C(=O)N[C@H](C(=O)N[C@H](C(=O)N[C@@H](CC(C)C)C(=O)N[C@@H](CC(=O)O)C(=O)N[C@@H](Cc1ccc(O)cc1)C(=O)N[C@@H](CC(C)C)C(=O)N[C@@H](C)C(=O)N[C@@H](C)C(=O)N[C@@H](CCCNC(=N)N)C(=O)N[C@@H](CC(=O)O)C(=O)N[C@@H](Cc1ccccc1)C(=O)N[C@H](C(=O)N[C@@H](CC(N)=O)C(=O)N[C@@H](Cc1c[nH]c2ccccc12)C(=O)N[C@@H](CC(C)C)C(=O)N[C@H](C(=O)N[C@@H](CCC(N)=O)C(=O)N[C@H](C(=O)N[C@@H](CCCCN)C(=O)N[C@H](C(=O)N[C@H](C(=O)N[C@@H](CC(=O)O)C(N)=O)[C@@H](C)O)[C@@H](C)CC)[C@@H](C)O)[C@@H](C)CC)[C@@H](C)CC)[C@@H](C)CC)[C@@H](C)O [Variant 5] (H-HGEGSFSDE[Nle]NTILDYLAARDFINWLIQTKITD-NH2) | 6.5 h | 2.4 | V5: clear |  | 10% |  |  |  |  | 
4 | B1 |  |  |  |  |  |  | 1 nM | 1.8 fold | 3.8 fold | 21.6 nM
